According to EPA's ToxRefDB 2:

Columns and labels:
[1] = test system: rat; settings: Sub-acute repeat dose toxicity, Oral, Gavage/Intubation, dose end: 12 day, group: systemic
[2] = test system: dog; settings: Subchronic oral toxicity in nonrodent, beagle, Gavage/Intubation, dose end: 92 day, group: systemic
[3] = test system: dog; settings: Sub-acute repeat dose toxicity; beagle; Oral; Gavage/Intubation; dose end: 21 day; group: systemic; systemic / in life observation / clinical signs / abnormal feces + systemic / in life observation / clinical signs / watery stools
[4] = test system: dog; settings: Sub-acute repeat dose toxicity; beagle; Oral; Gavage/Intubation; dose end: 16 day; group: systemic; systemic / in life observation / clinical signs / abnormal feces + systemic / in life observation / clinical signs / emesis + systemic / in …
[5] = test system: rat; settings: Subchronic oral toxicity in rodents, sprague dawley, Gavage/Intubation, dose end: 92 day, group: systemic
[6] = test system: rabbit; settings: Sub-acute repeat dose toxicity, new zealand white, Oral, Gavage/Intubation, dose end: 5 day, group: systemic
[7] = test system: rat; settings: Sub-acute repeat dose toxicity, sprague dawley, Oral, Gavage/Intubation, dose end: 15 day, group: systemic
[8] = test system: dog; settings: Sub-acute repeat dose toxicity; beagle; Oral; Gavage/Intubation; dose end: 23 day; group: systemic; systemic / in life observation / clinical signs / abnormal feces + systemic / in life observation / clinical signs / watery stools
[9] = test system: rat; settings: Subchronic oral toxicity in rodents, other, Feed, dose end: 90 day, group: systemic
[10] = test system: rat; settings: Multigenerational reproductive toxicity study, sprague dawley, Oral, Feed, dose end: 2 generation
[11] = test system: dog; settings: Chronic toxicity, beagle, Oral, Feed, dose end: 52 week, group: systemic
[12] = test system: dog; settings: Subchronic oral toxicity in nonrodent, beagle, Feed, dose end: 90 day, group: systemic, systemic / in life observation / body weight / body weight gain + systemic / in life observation / clinical signs / emaciation + systemic / …
[13] = test system: mouse; settings: Combined chronic toxicity/carcinogenicity, cd1, Oral, Feed, dose end: 80 week, group: systemic
[14] = test system: mouse; settings: Subchronic oral toxicity in rodents, cd1, Feed, dose end: 91 day, group: systemic
[15] = test system: rat; settings: Combined chronic toxicity/carcinogenicity, sprague dawley, Oral, Feed, dose end: 104 week, group: systemic
[16] = systemic / in life observation / body weight / body weight + systemic / in life observation / clinical signs / red or crusty deposits around…
[17] = systemic / in life observation / clinical signs / salivation + systemic / organ weight / liver / absolute
[18] = systemic / clinical chemistry / [other] / [other] + systemic / clinical chemistry / cytochrome p450, nos / cytochrome p450, nos + systemic…
[19] = systemic / in life observation / body weight / body weight gain + systemic / in life observation / food consumption / food consumption
[20] = systemic / in life observation / body weight / body weight gain + systemic / in life observation / food consumption / food consumption + …
[21] = systemic / in life observation / body weight / body weight + systemic / in life observation / clinical signs / abnormal feces + systemic / …
[22] = systemic / in life observation / mortality / mortality + systemic / pathology gross / stomach / discolored + systemic / pathology gross / …
[23] = systemic / organ weight / liver / absolute + systemic / organ weight / liver / relative to body weight + systemic / clinical chemistry / …
[24] = systemic / organ weight / liver / absolute + systemic / organ weight / liver / relative to body weight + systemic / in life observation / …
[25] = group: offspring, systemic / in life observation / body weight / offspring (pup) weight
[26] = group: parental, systemic / in life observation / body weight / body weight gain + systemic / in life observation / body weight / body weight
[27] = group: reproductive, reproductive / reproductive performance / gestational length / gestational length
[28] = systemic / in life observation / body weight / body weight + systemic / in life observation / body weight / body weight gain + systemic / in…
[29] = systemic / pathology gross / ear / misshapen
[30] = systemic / pathology microscopic / liver / hypertrophy
[31] = systemic / pathology microscopic / liver / hypertrophy + systemic / clinical chemistry / albumin / albumin + systemic / clinical chemistry…
[32] = systemic / clinical chemistry / globulins / globulins + systemic / pathology gross / full gross necropsy / lymp lymphoma malignant …

## CCC(CC)Nc1cc(C)nc(Oc2c(C)cc(C)cc2C)c1C
[1]; [16]
  LOAEL: > 500 mg/kg/day
  NOAEL: ≥ 500 mg/kg/day
[1]; [17]
  LEL: 250 mg/kg/day
  NEL: < 250 mg/kg/day
[2]; [18]
  LOAEL: > 20 mg/kg/day
  NOAEL: ≥ 20 mg/kg/day
[2]; systemic / in life observation / clinical signs / abnormal feces
  LEL: 2 mg/kg/day
[3]
  LEL: 5 mg/kg/day
  LOAEL: > 5 mg/kg/day
  NEL: 1 mg/kg/day
  NOAEL: ≥ 5 mg/kg/day
[4]
  LEL: 20 mg/kg/day
  LOAEL: > 20 mg/kg/day
  NEL: 10 mg/kg/day
  NOAEL: ≥ 20 mg/kg/day
[5]; [19]
  LEL: 1 mg/kg/day
  NEL: < 1 mg/kg/day
[5]; [20]
  LOAEL: > 100 mg/kg/day
  NOAEL: ≥ 100 mg/kg/day
[6]; [21]
  LOAEL: > 500 mg/kg/day
  NEL: 50 mg/kg/day
  NOAEL: ≥ 500 mg/kg/day
[6]; systemic / in life observation / food consumption / food consumption
  LEL: 100 mg/kg/day
[7]; systemic / in life observation / body weight / body weight + systemic / in life observation / body weight / body weight gain + systemic / …
  LEL: 100 mg/kg/day
[7]; [22]
  LOAEL: > 1000 mg/kg/day
  NOAEL: ≥ 1000 mg/kg/day
[8]
  LEL: 1 mg/kg/day
  LOAEL: > 1 mg/kg/day
  NEL: < 1 mg/kg/day
  NOAEL: ≥ 1 mg/kg/day

## CCOCn1c(-c2ccc(Cl)cc2)c(C#N)c(Br)c1C(F)(F)F [Chlorfenapyr]
[9]; [23]
  NEL: 24.1 mg/kg/day
  NOAEL: 24.1 mg/kg/day
[9]; [24]
  LEL: 48.4 mg/kg/day
  LOAEL: 48.4 mg/kg/day
[10]; [25]
  LEL: 22 mg/kg/day
  LOAEL: 22 mg/kg/day
  NEL: 5 mg/kg/day
  NOAEL: 5 mg/kg/day
[10]; group: parental, systemic / in life observation / body weight / body weight + systemic / in life observation / body weight / body weight gain
  NEL: 5 mg/kg/day
[10]; group: parental, systemic / in life observation / body weight / body weight gain
  LOAEL: 22 mg/kg/day
[10]; [26]
  LEL: 22 mg/kg/day
  NOAEL: 5 mg/kg/day
[10]; [27]
  LEL: 44 mg/kg/day
  LOAEL: > 44 mg/kg/day
  NEL: 22 mg/kg/day
  NOAEL: ≥ 44 mg/kg/day
[11]; systemic / in life observation / body weight / body weight + systemic / in life observation / body weight / body weight gain
  LOAEL: 8.7 mg/kg/day
[11]; [28]
  LEL: 8.7 mg/kg/day
  NEL: 4 mg/kg/day
  NOAEL: 4 mg/kg/day
[12]
  LEL: 6.7 mg/kg/day
  LOAEL: 6.7 mg/kg/day
  NEL: 3.9 mg/kg/day
  NOAEL: 3.9 mg/kg/day
[13]; systemic / in life observation / clinical signs / scabbing + systemic / pathology microscopic / brain / vacuolization
  LOAEL: 16.6 mg/kg/day
[13]; systemic / in life observation / clinical signs / scabbing + systemic / pathology microscopic / brain / vacuolization + systemic / …
  NOAEL: 2.8 mg/kg/day
[13]; [29]
  LEL: 2.8 mg/kg/day
  NEL: < 2.8 mg/kg/day
[14]; [30]
  LOAEL: 14.8 mg/kg/day
[14]; [31]
  NEL: 7.1 mg/kg/day
  NOAEL: 7.1 mg/kg/day
[14]; systemic / pathology microscopic / liver / hypertrophy + systemic / hematology / lymphocyte / lymphocyte + systemic / hematology / …
  LEL: 14.8 mg/kg/day
[15]; [32]
  NEL: 30.8 mg/kg/day
  NOAEL: 2.9 mg/kg/day
[15]; [30]
  LOAEL: 15 mg/kg/day
